Legend:
inner hair cell synapses = assay: Guinea pig kanamycin-induced cochlear synaptopathy model; assay type: in vivo, Hartley guinea pigs; conditions: kanamycin 400 mg/kg i.p. 10 days; 30 μl of 2% in vehicle bilateral transtympanic on day 15; three months after
Method: Beginning on day 0, male Hartley guinea pigs (450-500 g) were deafened by intraperitoneal administration of kanamycin (400 mg/kg) dosed once daily for 10 consecutive days. […] A loss of synapse density in this model has not been described previously. On day 15, animals received bilateral transtympanic injections of vehicle (30 μl), crystalline Compound I (30 μl of 2% in vehicle), or crystalline Compound II (30 μl of 2% in vehicle). Three months after administration of test article, animals were euthanized and cochleae collected and stained with phalloidin and antibodies against CtBP2 and NF-200. The number of CtBP2+/NF-200+ synapses were quantified and normalized to the number of inner hair cells to obtain synapse density. Synapse density was decreased with kanamycin treatment at 14.7 and 17.3 mm from the apex of the cochlea, which in the guinea pig cochlea, tonally correlates with 16 and 32 kHz, respectively, according to the Greenwood frequency map.
Vehicle (PF10) and GSI in vehicle used in Examples 6 and 7 were prepared as follows: To 129 mL sterile water was added, 0.96 g sodium chloride, 0.59 g sodium phosphate dibasic, and 0.14 g sodium phosphate monobasic. The solution was stirred at ambient temperature and 25.6 g poloxamer 407 was added and stirred overnight to yield a clear solution. […]

DCC α-fragment = DCC α-fragment Western blot, mouse ex vivo cochlea (spiral ganglion); assay type: cell-based, CD-1 mice; conditions: postnatal day 21 cochlea, 1 μM, 24 h, normalized to actin
Source text: Previous reports have shown that DCC (deleted in colorectal cancer) is a γ-secretase substrate. DCC is the receptor for the guidance molecule, netrin, and its activation results in neuronal axon outgrowth, axon turning and synapse formation. Embryonic spinal cords of presenilin knockout mice treated display persistent expression of the DCC α-fragment; these fragments can enhance netrin-DCC mediated events, including axon outgrowth in cultured motor neurons (Taniguchi et al., 2003, J. Biol. Chem., 278:30425-30428, and Bai et al., 2011, Cell, 144(1): 106-18). The following studies were performed using GSM, “RO”, as well as the GSI, Compound I. RO has the structure:
Cochleae were obtained from postnatal day 21 CD-1 mice. An opening was made in the bone at the cochlear apex to allow for fluid flow. Cochlea were incubated in serum-free growth media (DMEM-F12, N2 and B27 serum supplements, penicillin/streptomycin) with 1 μM RO or 1 μM Compound I. After 24 h, spiral ganglion were isolated and processed for Western blot. Membranes were probed with a DCC antibody recognizing the intracellular domain and bands were normalized to actin.

[1] = test system: Type I spiral ganglion neurons; assay: Type I spiral ganglion neuron neurite outgrowth with GSIs; assay type: cell-based, CD-1 mice; conditions: 24-48 h, 0.1% DMSO
Method: Mouse spiral ganglion neurons (SGN) were harvested from CD-1 mice (postnatal day 3 to 5), dissociated and cultured on collagen I in serum free media. Cells were treated for 24-48 h with test compound in 0.1% DMSO then immunostained with the neurite marker, Tuj1 and imaged. Neurite length was quantified using ImageJ software (developed by NIH and available publicly). Only Tuj1^+ cells with clear bipolar morphology characteristic of Type I SGNs were quantified. The test compounds were Compound I, Compound II, and RO4929097, as well as the Notch sparing GSI, BMS-708163; NT-3 was included as positive control. […] Moreover, BMS-708163, a Notch-sparing GSI, and Compound I, a Notch inhibiting GSI, both increased type I SGN neurite outgrowth (FIG. 6C).

C[C@H](OC(=O)NCC(F)(F)C(F)(F)F)C(=O)N[C@@H]1C(=O)Nc2ccccc2-c2ccccc21 [Compound I, (2,2,3,3,3-pentafluoropropyl)-carbamic acid (S)-1-((S)-6-oxo-6,7-dihydro-5H-dibenzo[b,d]azepin-7-ylcarbamoyl) ethyl ester]
synapse density (CtBP2+/NF-200+ synapses per inner hair cell) (inner hair cell synapses): increased
DCC α-fragment level compared to the vehicle group (DCC α-fragment): Increase in α-fragment
lengths of Type I SGN neurites [1]: significant increase
